Measured values from patent publication US5079244A, “Substituted 3-aminosydnone imines, pharmaceutical compositions containing same, and process for administering same” (Cassella Aktiengesellschaft, priority 1989, dated 1992).
Counter-ions that a name gives are not always drawn.

test system: spiral strips of the pulmonary artery of the guinea pig; test: relaxant effect on potassium-depolarized, CaCl2-contracted spiral strips of the pulmonary artery of the guinea pig; settings: Cavia porcellus, 40 mmol/l potassium, contraction by 0.5 mmol/l CaCl2, cumulative addition, average value of 4 to 6 vessel strips, read-out: IC50: concentration of the test substance which inhibits the contraction by 50%
Procedure: The pharmacological action of the compounds of the formula I was determined by a modified method of Godfraind and Kaba (Arch. Int. Pharmacodyn. Ther. 196, (Suppl ) 35 to 49, 1972) and of Schuman et al. (Naunyn-Schmiedeberg'sArch. Pharmacol. 289, 409 to 418, 1975). In this connection, spiral strips of the pulmonary artery of the guinea pig are depolarized using 40 mmol/l of potassium after equilibration in calcium-free Tyrode solution. An addition of 0.5 mmol/l of CaCl2 then induces a contraction. The relaxant effect of the test substance is determined by cumulative addition in semilogarithmic graduated concentrations. The concentration of the test substance which inhibits the contraction by 50% (=IC50, mol/l) is determined from the concentration-effect curve (abscissa: --log mol/l of test substance, ordinate % inhibition of the maximum contraction, average value of 4 to 6 vessel strips).

SMILES	IC50 [µM]
CC1CCCC(C)N1[n+]1[n-]oc(=N)c1CSc1ccccc1 (stereo not shown) [Example 5, 3-(2,6-Dimethylpiperidino)-4-phenylthiomethylsydnone imine hydrochloride]	1.1
N=c1o[n-][n+](N2CCOCC2)c1CSCc1ccccc1 [Example 7, 4-Benzylthiomethyl-3-morpholinosydnone imine hydrochloride]	0.7
CC1CCCC(C)N1[n+]1[n-]oc(=N)c1CSCc1ccccc1 (stereo not shown) [Example 8, 4-Benzylthiomethyl-3-(2,6-dimethylpiperidino)sydnone imine hydrochloride]	0.8
CC1CCCC(C)N1[n+]1noc([N-]C(=O)c2ccccc2)c1CSCc1ccccc1 (stereo not shown) [Example 10, N-Benzoyl-4-benzylthiomethyl-3-(2,6-dimethylpiperidino)sydnone imine]	2
CC(CSCc1ccccc1)c1c(=N)o[n-][n+]1N1CCOCC1 (stereo not shown) [Example 12, 4-(2-Benzylthio-1-methylethyl)-3-morpholinosydnone imine hydrochloride]	0.5
CC1CCCC(C)N1[n+]1[n-]oc(=N)c1COc1ccccc1 (stereo not shown) [Example 13, 3-(2,6-Dimethylpiperidino)-4-phenoxymethylsydnone imine hydrochloride]	2
CCOC(=O)[N-]c1cn(N2CCOCC2)n[o+]1 [molsidomine, N-ethoxycarbonyl-3-morpholino-sydnone imine, reference compound]	> 300
